Source: ChEMBL document CHEMBL3286195, “Discovery of (10R)-7-amino-12-fluoro-2,10,16-trimethyl-15-oxo-10,15,16,17-tetrahydro-2H-8,4-(metheno)pyrazolo[4,3-h][2,5,11]-benzoxadiazacyclotetradecine-3-carbonitrile (PF-06463922), a macrocyclic inhibitor of anaplastic lymphoma kinase (ALK) and c-ros oncogene 1 (ROS1) with preclinical brain …” (J Med Chem, 2014)
pIC50, pKi: −log10 of the molar value.

Legend:
physchem = details: octanol/water, pH 7.4
in vitro = details: human, liver microsomes
Description: Apparent total intrinsic clearance in human liver microsomes

[1] = biological target: BDNF/NT-3 growth factors receptor (Homo sapiens, UniProt Q16620)
Description: Inhibition of TRKB (unknown origin) by off-chip mobility shift assay

MDR1 = assay: in vitro; details: dog, MDCK-MDR1, pH 7.4
Description: Efflux ratio of permeability from basolateral to apical side to apical to basolateral side of MDCK cells expressing MDR1 at pH 7.4

[2] = Half life in rat at 1 mg/kg, iv qd; assay type: ADME, organism-based; parameters: dose 1 mg/kg, route intravenous; details: in vivo
[3] = biological target: Tyrosine-protein kinase FRK (Homo sapiens, UniProt P42685); assay: Inhibition of FRK (unknown origin) by TR-FRET-based Z'-LYTE assay
[4] = biological target: High affinity nerve growth factor receptor (Homo sapiens, UniProt P04629); assay: Inhibition of […] (unknown origin) by TR-FRET-based Z'-LYTE assay
[5] = Oral bioavailability in rat at 10 mg/kg qd; assay type: ADME, organism-based; details: in vivo
[6] = biological target: Protein-tyrosine kinase 2-beta (Homo sapiens, UniProt Q14289)
Description: Inhibition of PTK2B (unknown origin) by TR-FRET-based Z'-LYTE assay

[7] = Plasma clearance in rat at 1 mg/kg, iv qd; assay type: ADME, organism-based; parameters: dose 1 mg/kg, route intravenous
[8] = biological target: NT-3 growth factor receptor (Homo sapiens, UniProt Q16288)
Description: Inhibition of NRTK3 (unknown origin) by TR-FRET-based Z'-LYTE assay

Brain = assay: fAUC in rat brain at 10 mg/kg, po; assay type: ADME, organism-based; parameters: dose 10 mg/kg, route oral; details: in vivo
[9] = biological target: Tyrosine-protein kinase Fes/Fps (Homo sapiens, UniProt P07332); assay: Inhibition of FES (unknown origin) by TR-FRET-based Z'-LYTE assay
[10] = biological target: Tyrosine-protein kinase Fer (Homo sapiens, UniProt P16591); assay: Inhibition of FER (unknown origin) by TR-FRET-based Z'-LYTE assay
[11] = fAUC in rat CSF at 10 mg/kg, po; assay type: ADME, organism-based, Cerebrospinal fluid; parameters: dose 10 mg/kg, route oral; details: in vivo
[12] = Volume of distribution at steady state in rat at 1 mg/kg, iv qd; assay type: ADME, organism-based; parameters: dose 1 mg/kg, route intravenous; details: in vivo, read-out: Vdss
[13] = AUC (0 to 24 hrs) in rat at 10 mg/kg, po qd; assay type: ADME, organism-based; parameters: time < 24 hr, dose 10 mg/kg, route oral; details: plasma
Rattus norvegicus = assay: fCmax in rat at 10 mg/kg, po qd; assay type: ADME, organism-based; parameters: dose 10 mg/kg, route oral; details: in vivo
[14] = biological target: Leukocyte tyrosine kinase receptor (Homo sapiens, UniProt P29376); assay: Inhibition of LTK (unknown origin) by TR-FRET-based Z'-LYTE assay
Activated CDC42 kinase 1 = Activated CDC42 kinase 1 (Homo sapiens, UniProt Q07912)
Description: Inhibition of TNK2 (unknown origin) by TR-FRET-based Z'-LYTE assay

[15] = AUC in rat CSF at 10 mg/kg, po; assay type: ADME, organism-based, Plasma; parameters: dose 10 mg/kg, route oral
[16] = Tmax in rat at 10 mg/kg, po qd; assay type: ADME, organism-based; parameters: dose 10 mg/kg, route oral; details: in vivo
[17] = Fraction unbound in rat brain at 2.4 uM; assay type: ADME, tissue-based
[18] = Cmax in rat at 10 mg/kg, po qd; assay type: ADME, organism-based; parameters: dose 10 mg/kg, route oral; details: in vivo
Plasma [19] = assay: Average plasma concentration in rat at 10 mg/kg, po qd; assay type: ADME, organism-based; parameters: dose 10 mg/kg, route oral; details: in vivo
[20] = AUC (infinity) in rat at 1 mg/kg, iv qd; assay type: ADME, organism-based; parameters: time infinity, dose 1 mg/kg, route intravenous; details: plasma
Focal adhesion kinase 1 = Focal adhesion kinase 1 (Homo sapiens, UniProt Q05397)
Description: Inhibition of PTK2 (unknown origin) by TR-FRET-based Z'-LYTE assay

[21] = AUC in rat plasma at 10 mg/kg, po; assay type: ADME, organism-based; parameters: dose 10 mg/kg, route oral
[22] = AUC in rat brain at 10 mg/kg, po; assay type: ADME, organism-based; parameters: dose 10 mg/kg, route oral
Plasma [23] = assay: fAUC in rat plasma at 10 mg/kg, po; assay type: ADME, organism-based; parameters: dose 10 mg/kg, route oral; details: in vivo
[24] = Fraction unbound in rat plasma at 2.4 uM; assay type: ADME, cell-free
[25] = biological target: ALK tyrosine kinase receptor (Homo sapiens, UniProt Q9UM73)
[26] = biological target: ALK tyrosine kinase receptor (Homo sapiens, UniProt Q9UM73, L1196M)

With `N#Cc1[nH]nc2c1-c1cnc(N)c(c1)OCc1cc(F)ccc1OCC2` the logD (physchem) was 3.

For `Cc1nn(C)c2c1-c1cnc(N)c(n1)O[C@H](C)c1cc(F)ccc1C(=O)N(C)C2`, the logD (physchem) was 2.5 and the CLint scaled (in vitro) was 8 mL/min/kg.

For `Cn1ncc2c1-c1cnc(N)c(c1)OCc1cc(F)ccc1OCCC2`, the logD (physchem) was 3.4.

Compound `CNC(=O)c1ccc(F)cc1[C@@H](C)Oc1cc(-c2cn(C)nc2C)cnc1N` has a logD (physchem) of 2.1 and a CLint scaled (in vitro) of 28 mL/min/kg.

`Cc1nn(C)c2c1-c1cnc(N)c(c1)O[C@H](C)c1cc(F)ccc1C(=O)N(C)C2` gave a logD (physchem) of 2.2, a CLint scaled (in vitro) of 8.6 mL/min/kg and a pKi [1] of 9.30.

With `Cc1nc([C@](C)(O)CO)sc1-c1cnc(N)c(O[C@H](C)c2cc(F)ccc2-n2nccn2)c1` the CLint scaled (in vitro) was 13 mL/min/kg.

Work on `Cc1cnc2nc3c(n2c1)-c1cnc(N)c(c1)O[C@H](C)c1cc(F)ccc1C(=O)N(C)C3` yielded a logD (physchem) of 1.7, an efflux ratio (MDR1) of 20.2 and a CLint scaled (in vitro) of less than 8 mL/min/kg. It also gave a pKi [1] of 7.11.

With `C[C@H]1Oc2nc(cnc2N)-c2c(nc3ccc(C#N)cn23)CN(C)C(=O)c2ccc(F)cc21` the logD (physchem) was 2.4, the CLint scaled (in vitro) was less than 8 mL/min/kg and the pKi [1] was 7.19.

Work on `C[C@@H](Oc1cc(-c2cnnn2C)cnc1N)c1cc(F)ccc1-n1nccn1` yielded a CLint scaled (in vitro) of 8 mL/min/kg.

In the case of `C[C@H]1Oc2cc(cnc2N)-c2cc(S(C)(=O)=O)ccc2CN(C)C(=O)c2ccc(F)cc21`, the logD (physchem) was 1.8 and the CLint scaled (in vitro) was 9.1 mL/min/kg.

With `Cn1ncc2c1-c1cnc(N)c(c1)OCc1cc(F)ccc1OCCCC2` the logD (physchem) was 3.1.

With `COc1ccc(F)cc1[C@@H](C)Oc1cc(-c2cnnn2C)cnc1N` the logD (physchem) was 2.4 and the CLint scaled (in vitro) was 25 mL/min/kg.

In the case of `C[C@H]1Oc2cc(cnc2N)-c2c(nn(C)c2C#N)CN(C)C(=O)c2ccc(F)cc21` [LORLATINIB], the half-life [2] was 2.7 h, the logD (physchem) was 2.3 and the pIC50 [3] was 7.28. For the same compound, the pIC50 [4] was 7.62, the bioavailability [5] was 100% and the pIC50 [6] was 7.85. It also gave a clearance [7] of 15.5 mL/min/kg, a pIC50 [8] of 7.34 and a fAUC (Brain) of 2.355 µM·h. It also gave a pIC50 [9] of 8.22, a pIC50 [10] of 8.48 and a fAUC [11] of 3.475 µM·h. It also gave a Vd [12] of 2.7 L/kg, an AUC at 24 h [13] of 14900 ng·h/mL and a fCmax (Rattus norvegicus) of 1530 nM. The pIC50 [14] was 8.57, the pIC50 (Activated CDC42 kinase 1) was 7.77 and the AUC [15] was 3.48 µM·h. It also gave a CLint scaled (in vitro) of less than 8 mL/min/kg, a Tmax [16] of 1.3 h and a fraction unbound at 2.4 µM [17] of 0.12. For the same compound, the Cmax [18] was 1730 ng/mL, the Cave (Plasma [19]) was 551 nM and the AUC(0-inf) [20] was 1150 ng·h/mL. For the same compound, the pIC50 (Focal adhesion kinase 1) was 7.77, the AUC [21] was 30.7 µM·h and the AUC [22] was 19.6 µM·h. For the same compound, the fAUC (Plasma [23]) was 11.052 µM·h and the fraction unbound at 2.4 µM [24] was 0.36.

Work on `COc1nn(C)c2c1-c1cnc(N)c(c1)O[C@H](C)c1cc(F)ccc1C(=O)N(C)C2` yielded a logD (physchem) of 2.4 and a CLint scaled (in vitro) of 8.3 mL/min/kg.

In the case of `Cc1nn(C)c2c1-c1cnc(N)c(n1)O[C@@H](C)c1cc(F)ccc1C(=O)N(C)C2`, the logD (physchem) was 2.5 and the CLint scaled (in vitro) was 9.7 mL/min/kg.

In the case of `C[C@H]1Oc2nc(cnc2N)-c2cc(S(C)(=O)=O)ccc2CN(C)C(=O)c2ccc(F)cc21`, the logD (physchem) was 2.2 and the CLint scaled (in vitro) was 8 mL/min/kg.

Compound `Cc1nn(C)cc1-c1cnc(N)c(O[C@H](C)c2cc(F)ccc2-n2nccn2)c1` has a CLint scaled (in vitro) of 66 mL/min/kg.

With `COc1nn(C)c2c1-c1cnc(N)c(n1)O[C@H](C)c1cc(F)ccc1C(=O)N(C)C2` the logD (physchem) was 2.7 and the CLint scaled (in vitro) was 23.5 mL/min/kg.

In the case of `Cc1nn(C)c2c1-c1cnc(N)c(c1)OCc1cc(F)ccc1C(=O)N(C)C2`, the logD (physchem) was 2 and the CLint scaled (in vitro) was 8.4 mL/min/kg.

In the case of `C[C@H]1Oc2cc(cnc2N)-c2c(nn(C)c2C#N)CCOc2ccc(F)cc21`, the logD (physchem) was 3.3.

In the case of `COc1ncccc1-c1cnc(N)c(O[C@H](C)c2cc(F)ccc2-n2nccn2)n1`, the logD (physchem) was 4 and the CLint scaled (in vitro) was 41 mL/min/kg.

`C[C@@H](Oc1cc(-c2cccc(S(C)(=O)=O)c2)cnc1N)c1cc(F)ccc1-n1nccn1` showed a logD (physchem) of 3.4 and a CLint scaled (in vitro) of 10 mL/min/kg.

For `Cc1nn(C)c2c1-c1cnc(N)c(c1)O[C@@H](C)c1cc(F)ccc1C(=O)N(C)C2`, the logD (physchem) was 2.2 and the CLint scaled (in vitro) was 8 mL/min/kg.

For `C[C@H]1Oc2cc(cnc2N)-c2c(nn(C)c2C#N)CCCOc2ccc(F)cc21`, the logD (physchem) was 3.8.

`C[C@H]1Oc2cc(cnc2N)-c2c(C3CC3)nn(C)c2CN(C)C(=O)c2ccc(F)cc21` showed a logD (physchem) of 2.9, a CLint scaled (in vitro) of 14.6 mL/min/kg and a pKi [1] of 9.40.

For `Cc1nn(C)cc1-c1cnc(N)c(O[C@H](C)c2cc(F)ccc2C(=O)N(C)C)c1`, the logD (physchem) was 2.1, the pKi [25] was 7.66 and the efflux ratio (MDR1) was 7.6. For the same compound, the CLint scaled (in vitro) was 58 mL/min/kg and the pKi [26] was 6.51.

In the case of `N#Cc1[nH]nc2c1-c1cnc(N)c(c1)OCc1cc(F)ccc1OCCC2`, the logD (physchem) was 3.6.

In the case of `CNC(=O)c1ccc(F)cc1[C@@H](C)Oc1nc(-c2cccnc2OC)cnc1N`, the logD (physchem) was 3 and the CLint scaled (in vitro) was 76 mL/min/kg.
